Ki data for 22 compounds are collected here from patent US5747535A, “Selective thrombin inhibitors” (priority 1995, dated 1998).
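Note: bovine thrombin cleaving the chromogenic substrate Chromozym TH, with para-nitroaniline release tracked as absorbance change over time to give initial rates, in Tris buffer at pH 7.8.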

The test concerns the target bovine thrombin (Bos taurus, UniProt P00735). Put plainly: biochemical.
Description: The thrombin inhibitory effect of the compound of formula (I) according to the present invention can be identified by determination of a dissociation constant Ki represented by the following equation according to the known method described in literature [see, Methods in enzymology V. 80,p341-361;Biochemistry 27,p2144-2151 (1988)].
The dissociation constant Ki denotes the degree of dissociation of the enzyme-thrombin inhibitor complex. […] Such dissociation constant can be determined by reacting thrombin with a certain substrate which develops a color when it is hydrolyzed by the action of thrombin, and then measuring the degree of color development as a function of time by means of spectrophotometry.
Chromozym TH is hydrolyzed by thrombin to produce yellow para-nitroaniline. Accordingly, the amount of yellow para-nitroaniline thus produced can be measured as the change of absorbance in the course of time to determine the thrombin inhibitory activity of the compound according to the present invention. That is, the enzyme activity can be determined from the rate of change in absorbance and then can be directly connected with the ability of the thrombin inhibitor to inhibit the enzyme activity (see, Methods in Enzymology, V. 80,p341-361,Biochemistry 27, p2144-2151, 1988).
The ability of the compound according to the present invention to inhibit the thrombin activity was determined as described in the following.
1160 μl of 0.1M tris buffered solution (pH 7.8) containing 150 mM NaCl and 0.1% PEG 8000 (polyethylene glycol, molecular weight about 8,000) was added to a 1.5 ml cuvette. Chromozym TH was dissolved in dimethylsulfoxide(DMSO) in the concentration of 10mM and the resulting solution was diluted with the said tris buffered solution to the concentration of 0.1 mM, which was then used as the substrate solution. 225 μl of 0.1 mM substrate solution thus prepared was added to the cuvette. The inhibitor solution was prepared by dissolving the thrombin inhibitor compound according to the present invention in dimethylsulfoxide in the concentration of 10 mg/ml and then diluting the resulting solution with the said tris buffered solution to the concentration of 0.1 mg/ml, 0.01 mg/ml, 0.001 mg/ml and 0.0001 mg/ml. The resulting inhibitor solution was taken in an amount corresponding to 0 to 10 μg as the inhibitor and then diluted with tris buffered solution to make the total volume of 100 μl which was added to the cuvette.
15 μl of bovine thrombin solution dissolved in above tris buffered solution in the concentration of 0.1 mg/ml was added to the cuvette to initiate the enzyme hydrolysis reaction. The amount of para-nitroaniline produced for 2 minutes from the moment the enzyme is added was monitored by measuring the absorbance at 381 nm. The continuous spectrum of absorbance to reaction time was depicted. The same experiments were conducted for various concentration of the inhibitor to obtain the continuous spectrum.
In each spectrum, the initial velocity Vi was obtained from the slope within initial 30 seconds of the reaction time and then a graph for the reciprocal value of initial velocity(1/Vi) to the inhibitor concentration was depicted. From the graph, the primary equation satisfying the points depicted thereon was obtained and then the value Ki was calculated from the x intercept of the primary equation using the enzyme reaction equation.
The velocity constant Ks was obtained using the same solution in the same concentration as in determination of the value Ki but using the following experimental procedure.
By Ki is commonly meant a dissociation constant, usually derived from enzyme kinetics or from competition with a known ligand. Lower therefore signals tighter binding. Take `N=C(NN)c1ccc(C[C@H](NS(=O)(=O)c2ccc3ccccc3c2)C(=O)N(CCOCc2ccccc2)C2CCCC2)cc1` [Example 4, (S)-N-cyclopentyl-N-(2-benzyloxyethyl)-3-(4-amidrazonophenyl)-2-(2-naphthylsulfonylamino)propionamide]: the Ki came to 345 nM. As to `CCN(C(=O)[C@H](Cc1ccc(C(=N)NN)cc1)NS(=O)(=O)c1ccc2ccccc2c1)C1CCCC1` [Example 6, (S)-N-cyclopentyl-N-ethyl-3-(4-amidrazonophenyl)-2-(2-naphthylsulfonylamino)propionamide], the affinity corresponds to a Ki of 4.35 nM. This Ki lies about 79-fold lower than the previous one. With `COc1cc(C)c(S(=O)(=O)N[C@@H](Cc2ccc(C(=N)NN)cc2)C(=O)N(C)C2CCCC2)c(C)c1C` [Example 9, (S)-N-cyclopentyl-N-methyl-3-(4-amidrazonophenyl)-2-[(4-methoxy-2,3,6-trimethylbenzene)sulfonylamino]propionamide] the figure was 227 nM; with `CN(C)C(=O)[C@H](Cc1ccc(C(=N)NN)cc1)NS(=O)(=O)c1ccc2ccccc2c1` [Example 13, (S)-N,N-dimethyl-3-(4-amidrazonophenyl)-2-(2-naphthylsulfonylamino)propionamide], 216 nM. On to `CN(C(=O)[C@H](Cc1ccc(C(=N)NN)cc1)NC(=O)Cc1cccc2ccccc12)C1CCCC1` [Example 17, (S)-3-[4-(amidrazono)-phenyl]-N-cyclopentyl-N-methyl-2-(2-naphthalen-1-yl-acetylamino)-propionamide], for which the Ki was determined as 16 nM. With `CN(C(=O)[C@H](Cc1ccc(C(=N)NN)cc1)NS(=O)(=O)c1cccc2ccccc12)C1CCCC1` [Example 22, (S)-3-[4-(amidrazono)-phenyl]-N-cyclopentyl-N-methyl-2-(naphthalene-1-sulfonylamino)-propionamide] the figure was 17 nM; with `CN(C(=O)[C@H](Cc1ccc(C(=N)NN)cc1)NC(=O)COc1ccc2ccccc2c1)C1CCCC1` [Example 24, (S)-3-[4-(amidrazono)-phenyl]-N-cyclopentyl-N-methyl-2-[2-(naphthalene-2-yl-oxy)acetylamino]-propionamide], 20100 nM.

Compound `COC(=O)CN(C)C(=O)[C@H](Cc1ccc(C(=N)NN)cc1)NS(=O)(=O)c1ccc2ccccc2c1` [Example 25, {[3-(4-amidrazono-phenyl)-(S)-2-(naphthalene-2-sulfonylamino)-propionyl]-methyl-amino}-acetic acid methyl ester] displayed a Ki of 259 nM. With `COC(=O)[C@H](C)N(C)C(=O)[C@H](Cc1ccc(C(=N)NN)cc1)NS(=O)(=O)c1ccc2ccccc2c1` [Example 27, (S)-2-{[3-(4-amidrazono-phenyl)-(S)-2-(naphthalene-2-sulfonylamino)-propionyl]-methyl-amino}propionic acid methyl ester] the figure was 65 nM; with `COC(=O)[C@@H](C)N(C)C(=O)[C@H](Cc1ccc(C(=N)NN)cc1)NS(=O)(=O)c1ccc2ccccc2c1` [Example 29, (R)-2-{[3-(4-amidrazono-phenyl)-(S)-2-(naphthalene-2-sulfonylamino)-propionyl]-methyl-amino}-propionic acid methyl ester], 89 nM; with `COC(=O)[C@@H](C(C)C)N(C)C(=O)[C@H](Cc1ccc(C(=N)NN)cc1)NS(=O)(=O)c1ccc2ccccc2c1` [Example 31, (R)-2-{[3-(4-amidrazono-phenyl)-(S)-2-(naphthalene-2-sulfonylamino)-propionyl]-methyl-amino}-3-methyl-butyric acid methyl ester], 165 nM. With `COC(=O)CCN(C)C(=O)[C@H](Cc1ccc(C(=N)NN)cc1)NS(=O)(=O)c1ccc2ccccc2c1` [Example 33, 3-{[3-(4-amidrazono-phenyl)-(S)-2-(naphthalene-2-sulfonylamino)-propionyl]-methylamino}-propionic acid methyl ester] the figure was 35 nM. Under `COC(=O)CCCN(C)C(=O)[C@H](Cc1ccc(C(=N)NN)cc1)NS(=O)(=O)c1ccc2ccccc2c1` [Example 35, 4-{[3-(4-amidrazono-phenyl)-(S)-2-(naphthalene-2-sulfonylamino)-propionyl]-methyl-amino}-butyric acid methyl ester] stands 612 nM; under `CCCCN(CC(=O)OC)C(=O)[C@H](Cc1ccc(C(=N)NN)cc1)NS(=O)(=O)c1ccc2ccccc2c1` [Example 39, {[3-(4-amidrazono-phenyl)-(S)-2-(naphthalene-2-sulfonylamino)-propionyl]-butylamino}-acetic acid methyl ester], 165 nM; under `CCOC(=O)C1CCCC1N(C)C(=O)[C@H](Cc1ccc(C(=N)NN)cc1)NS(=O)(=O)c1ccc2ccccc2c1` (stereo partly drawn) [Example 45, 2-{[3-(4-amidrazono-phenyl)-(S)-2-(naphthalene-2-sulfonylamino)-propionyl]-methylamino}-cyclopentane carboxylic acid ethyl ester], 346 nM.

Take `CN(C(=O)[C@H](Cc1ccc(C(=N)NN)cc1)NS(=O)(=O)c1ccc2ccccc2c1)C1CCCC1C(=O)O` (stereo partly drawn) [Example 46, 2-{[3-(4-amidrazono-phenyl)-(S)-2-(naphthalene-2-sulfonylamino)-propionyl]-methylamino}-cyclopentane carboxylic acid]: the inhibition constant (Ki) worked out at 880 nM. With `COC(=O)[C@H](C(C)C)N(C)C(=O)[C@H](Cc1ccc(C(=N)NN)cc1)NS(=O)(=O)c1ccc2ccccc2c1` [Example 47, (S)-2-{[3-(4-amidrazono-phenyl)-(S)-2-(naphthalene-2-sulfonylamino)-propionyl]-methylamino}-3-methyl-butyric acid methyl ester] the figure was 665 nM; with `COC(=O)[C@H]1CCCCN1C(=O)[C@H](Cc1ccc(C(=N)NN)cc1)NS(=O)(=O)c1ccc2ccccc2c1` [Example 48, 1-[3-(4-amidrazono-phenyl)-(S)-2-(naphthalene-2-sulfonylamino)-propionyl]-piperidine-(R)-2-carboxylic acid methyl ester], 13 nM. Under `N=C(NN)c1ccc(C[C@H](NS(=O)(=O)c2ccc3ccccc3c2)C(=O)N2CCCC[C@@H]2C(=O)O)cc1` [Example 49, 1-[3-(4-amidrazono-phenyl)-(S)-2-(naphthalene-2-sulfonylamino)-propionyl]-piperidine-(R)-2-carboxylic acid] stands 406 nM; under `CCOC(=O)N1CCN(C(=O)[C@H](Cc2ccc(C(=N)NN)cc2)NS(=O)(=O)c2ccc3ccccc3c2)CC1` [Example 51, (S)-naphthalene-2-sulfonic acid [1-(4-amidrazono)benzyl-2-oxo-2-(4-ethoxycarbonyl-piperazinyl)-ethyl]amide], 3300 nM. With `N=C(NN)c1ccc(C[C@H](NS(=O)(=O)c2ccc3ccccc3c2)C(=O)N2CCN(C=O)CC2)cc1` [Example 52, (S)-naphthalene-2-sulfonic acid [1-(4-amidrazono)benzyl-2-(4-formyl-piperazinyl)-2-oxoethyl]amide] the figure was 50 nM. Turning to `CCN1CCN(C(=O)[C@H](Cc2ccc(C(=N)NN)cc2)NS(=O)(=O)c2ccc3ccccc3c2)CC1` [Example 53, (S)-naphthalene-2-sulfonic acid [1-(4-amidrazono)benzyl-2-(4-ethyl-piperazinyl)-2-oxoethyl]amide], the affinity corresponds to a Ki of 530 nM.
